Experimental data from patent publication US7528223B2 (priority 2002, dated 2009).

Experiments:
[1] = tested on: peptide-specific T cells in patient-derived peripheral blood mononuclear cells (PBMC); assay type: cell-based, human (HLA-A*0201 HCV positive patient); conditions: for Counts-mean size >10 / Counts-mean size >25 / Counts-mean size >75: IFN-g ELIspot spot counts, Patient, Plate 11_01_03, patient-derived PBMC; for Counts-mean size >10: spot size >10; for Counts-mean size >25: spot size >25; for Counts-mean size >75: spot size >75; for number of peptide-specific T cells (IFN-g Elispot): PBMC of patient cured of chronic HCV infection, frozen 1996 (Table 5, FIG. 3)
Text: Since those ncORF peptides are immunogenic in tg-mice, the present peptides were ananlysed in an ELIspot assay on PBL's from HCV+ patients.
Patient-derived peripheral blood mononuclear cells (PBMC) frozen in 1996 were thawed to perform an IFN-g Elispot assay with the following peptides: […]

[2] = tested on: peptide-specific IFN-γ producing cells; design: species or system C57B1/6 mice; conditions: mouse, in vivo, sc

Sequence | Counts-mean size >10 [1] | Counts-mean size >25 [1] | Counts-mean size >75 [1] | number of peptide-specific T cells (IFN-g Elispot) [1] | peptide-specific IFN-γ spots (ELIspot) [2]
FMLGALLPI [Ipep 1373] | 159 | 86 | 3 | high numbers of peptide-specific T cells | 
IASNENMETM [p1574, reference compound] |  |  |  |  | do not show any specific spots
LLLQRWALV [Ipep 1372] | 43 | 36 | 13 | high numbers of peptide-specific T cells | 
SSIAAQDAL [p1600] |  |  |  |  | do not show any specific spots
TLWAGPLLKV [Ipep 1371] | 24 | 15 | 2 | high numbers of peptide-specific T cells | 
TMLYNKMEF [p1569] |  |  |  |  | specifically release IFN-γ
VTILNLALL [p1664] |  |  |  |  | specifically release IFN-γ
